Test results: US12534465B2, “5H-pyrrolo[3,2-d]pyrimidine-2,4-diamino compounds and antibody conjugates thereof” (SUTRO BIOPHARMA, INC., priority 2019, dated 2026)
pEC50: −log10 of the molar value.

Biological target: T1, human TLR8 (Homo sapiens, UniProt Q9NR97)
T1 construct: host or cells: HEK293
T1 sequence (Q9NR97 27-1041): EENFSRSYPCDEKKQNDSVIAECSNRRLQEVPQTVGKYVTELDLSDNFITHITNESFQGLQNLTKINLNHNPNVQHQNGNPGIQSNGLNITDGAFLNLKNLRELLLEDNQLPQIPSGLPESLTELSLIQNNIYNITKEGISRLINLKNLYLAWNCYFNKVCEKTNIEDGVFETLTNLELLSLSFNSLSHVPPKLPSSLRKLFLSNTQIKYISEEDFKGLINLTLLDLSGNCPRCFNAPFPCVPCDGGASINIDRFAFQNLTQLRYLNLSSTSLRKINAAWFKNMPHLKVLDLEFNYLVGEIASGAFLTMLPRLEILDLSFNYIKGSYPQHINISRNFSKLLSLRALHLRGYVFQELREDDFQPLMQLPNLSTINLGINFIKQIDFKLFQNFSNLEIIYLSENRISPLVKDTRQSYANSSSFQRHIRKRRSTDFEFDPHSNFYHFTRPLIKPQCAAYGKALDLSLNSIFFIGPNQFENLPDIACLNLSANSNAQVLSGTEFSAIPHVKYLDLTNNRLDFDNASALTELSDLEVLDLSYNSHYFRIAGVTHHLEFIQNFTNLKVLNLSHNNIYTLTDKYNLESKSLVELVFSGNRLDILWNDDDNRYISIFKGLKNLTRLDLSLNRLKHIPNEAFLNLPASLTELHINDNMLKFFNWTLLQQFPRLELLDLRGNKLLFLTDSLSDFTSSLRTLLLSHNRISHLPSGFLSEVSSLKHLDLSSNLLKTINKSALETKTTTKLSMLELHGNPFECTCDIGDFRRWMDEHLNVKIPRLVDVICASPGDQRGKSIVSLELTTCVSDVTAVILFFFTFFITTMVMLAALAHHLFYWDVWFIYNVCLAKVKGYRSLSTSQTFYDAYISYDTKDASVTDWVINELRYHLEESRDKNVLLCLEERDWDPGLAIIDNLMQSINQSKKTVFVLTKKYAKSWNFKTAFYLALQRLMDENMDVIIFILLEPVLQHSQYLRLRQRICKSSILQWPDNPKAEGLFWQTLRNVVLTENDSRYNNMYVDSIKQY
Experiment: HEK293-humanTLR8 SEAP reporter assay (Example 8)
Format: cell-based
Settings: HEK293-hTLR8 SEAP reporter cells, 24 hrs
Method: In this example, the in vitro activity of compounds to activate human TLR7 (or human TLR8 or mouse TLR7) pathway was evaluated on HEK293 reporter cells transfected with human TLR7 (or human TLR8 or mouse TLR7) and an inducible SEAP (secreted embryonic alkaline phosphatase) reporter gene. The SEAP reporter gene is placed under the control of the IFN-β minimal promoter fused to five NF-κB and AP-1-binding sites. Stimulation with a TLR7 agonist activates NF-κB and AP-1 which induces the production of SEAP. Levels of SEAP were determined by HEK-Blue Detection medium.
The in vitro activity of compounds on TLR7 (human and mouse) and TLR8 (human only) reporter cell lines was assessed as follows. 5-(2-methoxy-4-(piperazin-1-ylmethyl)benzyl)-N4-pentyl-5H-pyrrolo[3,2-d]pyrimidine-2,4-diamine (Compound 1) is a compound used for comparison and has the structure shown below:
HEK293-humanTLR7 (hTLR7), HEK293-mouseTLR7 (mTLR7) and HEK293-humanTLR8 (hTLR8) reporter cell lines were purchased from Invivogen and cell lines were maintained in the manufacturer's recommended culture medium with required supplemental antibiotics. On the day of assay, the cells were harvested with Accutase and counted by the Vi-CELL Cell Viability Analyzers. Cells were resuspended in HEK blue detection medium and a total of 10,000 cells were seeded in each well of a 384-well flat bottom plate. Serial dilutions of test compounds (1:4 serial dilution starting from 5 μM) were added into treatment wells and assay plates were cultured at 37° C. in a CO2 incubator for 24 hrs. The plates were then read by spectrophotometry at 640 nm. Data was fitted with non-linear regression analysis, using a log(inhibitor) vs. response-variable slope, 3-parameter fit with GraphPad Prism. There result was reported in Table 1 as EC50 (the midpoint of the curve, or concentration at which 50% of the maximum effect was observed).

| pEC50 | Compound |
| --- | --- |
| 6.47 | CCCCCNc1nc(N)nc2ccn(Cc3ccc(CN4CCNCC4)cc3OC)c12 [Compound 1, 5-(2-methoxy-4-(piperazin-1-ylmethyl)benzyl)-N4-pentyl-5H-pyrrolo[3,2-d]pyrimidine-2,4-diamine, reference compound] |
| 6.47 | CCCCCNc1nc(N)nc2ccn(Cc3ccc(CN4CC5(CNCCO5)C4)cc3OC)c12 [Compound 10, 5-[[2-methoxy-4-(5-oxa-2,8-diazaspiro[3.5]nonan-2-ylmethyl)phenyl]methyl]-N4-pentyl-pyrrolo[3,2-d]pyrimidine-2,4-diamine] |

| Compound | pEC50 |
| --- | --- |
| CCCCCNc1nc(N)nc2ccn(Cc3ccc(CN4CC(NC)C4)cc3OC)c12 [Compound 2, 5-(2-methoxy-4-((3-(methylamino)azetidin-1-yl)methyl)benzyl)-N4-pentyl-5H-pyrrolo[3,2-d]pyrimidine-2,4-diamine] | 6.43 |
